# Values of other authors in PMC10356740 (Journal of sleep research, 2023).
# Tests used:
# [1] = tested on: OX2R; settings: read-out: EC50 on OX2R; ref Kimura et al., 2019; cited from earlier work
# [2] = tested on: OX1R; settings: OX2R over OX1R; ref Kimura et al., 2019; cited from earlier work
# [3] = tested on: wild-type mice; settings: oral, 5h into the light period, normal sleep phase; ref Ishikawa et al., 2019; cited from earlier work
# [4] = tested on: Hcrt-neuron ablated mice; settings: ref Kimura et al., 2019; cited from earlier work
# [5] = tested on: orexin/ataxin-3 mice; settings: chronic dosing for up to 14 days; ref Ishikawa et al., 2020; cited from earlier work
# [6] = Phase 2; led Takeda to suspend dosing; cited from earlier work
smiles,measurement,setting,value
CC(C)(O)C(=O)N1CC[C@H](NS(C)(=O)=O)[C@@H]1Cc1cccc(-c2cc(F)cc(F)c2)c1F.CC(C)(O)C(=O)N1CC[C@H](NS(C)(=O)=O)[C@@H]1Cc1cccc(-c2cc(F)cc(F)c2)c1F.O.O.O [TAK-994],EC50,[1],19 nM
same,selectivity against OX1R,[2],> 700 fold
same,Wakefulness,[3],promoted wakefulness
same,Cataplectic episodes,[4],suppressing cataplectic episodes
same,Time spent in wake,[4],increased time spent in wake
same,Wake maintenance,[4],improved wake maintenance
same,Sleep rebound,[5],without causing a sleep rebound
same,Wakefulness after chronic dosing,[5],wake-promoting effects
same,Safety,[6],a safety signal emerged
